# Measured values taken from PMC4476799, “Englerin A Agonizes the TRPC4/C5 Cation Channels to Inhibit Tumor Cell Line Proliferation” (PLoS ONE, 2015).
# Several values for one entry are separate records, joined by “and”; a condition that tells them apart may be missing. Identical values can stand only once.
# Assays:
# [1] = molecular target: T1, TRPC4 (Homo sapiens, UniProt Q9UBN4); assay: Electrophysiology (QPatch-HT automated patch clamp, voltage ramp); format: cell-based; settings: TRPC4 expressing HEK293T cells
# T1 construct: host or cells: Flp-In T-REx-293 (called HEK293T with Dox-inducible TRPC4)
# T1 sequence (Q9UBN4 1-977): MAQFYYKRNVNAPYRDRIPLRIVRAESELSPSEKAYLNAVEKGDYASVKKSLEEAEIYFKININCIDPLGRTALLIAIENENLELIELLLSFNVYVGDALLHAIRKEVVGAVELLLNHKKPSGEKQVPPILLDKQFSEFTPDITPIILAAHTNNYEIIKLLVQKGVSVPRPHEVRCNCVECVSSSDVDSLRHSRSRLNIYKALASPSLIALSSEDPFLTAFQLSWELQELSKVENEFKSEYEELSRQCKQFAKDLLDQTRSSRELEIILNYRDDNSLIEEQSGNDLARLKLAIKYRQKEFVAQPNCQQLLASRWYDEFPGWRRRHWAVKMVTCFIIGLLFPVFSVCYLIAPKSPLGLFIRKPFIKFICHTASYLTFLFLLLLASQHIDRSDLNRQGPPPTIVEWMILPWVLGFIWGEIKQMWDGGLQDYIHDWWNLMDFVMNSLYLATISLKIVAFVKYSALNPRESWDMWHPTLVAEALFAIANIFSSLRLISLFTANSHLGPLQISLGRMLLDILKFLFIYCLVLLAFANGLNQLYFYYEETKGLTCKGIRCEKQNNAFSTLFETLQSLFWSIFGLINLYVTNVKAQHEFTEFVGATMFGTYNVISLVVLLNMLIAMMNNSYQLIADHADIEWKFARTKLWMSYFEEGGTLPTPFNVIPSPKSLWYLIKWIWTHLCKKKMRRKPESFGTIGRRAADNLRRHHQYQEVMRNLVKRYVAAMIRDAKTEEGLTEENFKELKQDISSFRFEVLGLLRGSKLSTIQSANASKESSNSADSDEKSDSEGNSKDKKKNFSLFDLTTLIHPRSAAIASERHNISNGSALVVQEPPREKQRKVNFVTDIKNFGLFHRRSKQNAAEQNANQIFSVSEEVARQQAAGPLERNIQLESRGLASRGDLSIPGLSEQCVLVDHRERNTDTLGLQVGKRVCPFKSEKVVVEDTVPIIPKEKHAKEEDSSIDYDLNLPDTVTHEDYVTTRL
# Description: TRPC4 currents were recorded from HEK293T cells with Dox-inducible TRPC4 on the QPatch-HT automated patch clamp system at room temperature (21–24°C) (Biolin Scientific, Stockholm, Sweden). The internal solution contained (in mM): 150 Cs-aspartate, 2 MgCl2, 0.36 CaCl2, 1 EGTA, 4 MgATP, 0.3 NaGTP and 10 HEPES, pH = 7.20 with CsOH (calculated free [Ca^2+] = 100 nM using WebMaxChelator http://www.stanford.edu/~cpatton/maxc.html, assuming an ionic strength of 0.16). The standard external solution contained (in mM): 150 NaCl, 4 KCl, 2 CaCl2, 1 MgCl2, 10 HEPES and 10 D-glucose (pH = 7.40) with NaOH. Currents were elicited by a voltage ramp protocol consisting of a 50 ms step to −100 mV, followed by a 200 ms ramp to +100 mV and 10 ms at +100 mV. Voltage ramps were applied every 10 s from a holding potential of 0 mV. Results were expressed as means ± S.E.M.
# [2] = Anesthetized rat experiments (hemodynamics, blood levels); format: in vivo; settings: individual animals; for Outcome: IV infusion 0.3 mg/kg englerin B (doses up to 0.3 mg/kg); for Compound concentration in blood: IV infusion 0.3 mg/kg englerin B
# Description: Rats were anesthetized via an intra-peritoneal (ip) injection of ketamine/xylazine (80/10 mg/kg). A half dose (40 mg/kg ketamine) was given as supplemental anesthesia as needed. Animals were placed on a heating pad set to maintain body temperature at approximately 37°C. Body temperature was monitored throughout the experiment via a rectal temperature probe.
# Once consciousness had been lost, the trachea was isolated and an endotracheal tube was inserted for mechanical ventilation. The endotracheal tube was connected to a mechanical ventilator that provided positive-pressure ventilation with room air, set to maintain 60 breaths/min with a tidal volume of 15 ml/kg. An incision was made on both sides of the neck. Both carotid arteries and a jugular vein were isolated and ligated anteriorly. A Millar pressure catheter was introduced into the left carotid artery to measure systolic arterial pressure (SAP), diastolic pressure (DAP), mean arterial pressure (MAP) and heart rate (HR). Another Millar pressure catheter was introduced into the left ventricular chamber through the right carotid artery to measure left ventricular systolic pressure (LVSP) and left ventricular end diastolic pressure (LVEDP).
# A cannula for test compound administration was placed into a jugular vein. A lead II electrocardiogram was recorded via needle electrodes placed in the right arm, left leg and chest and PR and QRS intervals were reported.
# After rats were surgically instrumented, hemodynamic and electrocardiographic monitoring was initiated. […] The duration of the experimental testing was approximately 60 minutes.
# At the end of each infusion period, approximately 0.5 ml of blood was withdrawn from the vena cava into a pre-chilled collection tube containing 2.5 ml of 90% ACN (acetonitrile):10% water.
smiles,measurement,setting,value
CC(C)[C@@]12C[C@@H](O)[C@@](C)(O1)[C@@H]1CC[C@@H](C)[C@H]1[C@@H]2OC(=O)/C=C/c1ccccc1 [Englerin B],induced current,[1],did not induce current
same,Outcome,[2],No effect
same,Outcome,[2]; listed as englerin B,no effect on mean arterial pressure or animal viability
same,Compound concentration in blood,[2],539 nM and 362 nM and 462 nM and 442 nM
same,Compound concentration in blood,[2]; listed as englerin B,362 to 539 nM
